# Source: paper PMC11129975, “A first-in-human phase I study of TAS-117, an allosteric AKT inhibitor, in patients with advanced solid tumors” (Cancer Chemotherapy and Pharmacology, 2024)
# Tests used:
# [1] = test system: advanced or metastatic solid tumors; assay: Antitumor activity, best overall response by RECIST version 1.1; format: in vivo, human
# Experimental: The phosphorylation status of PRAS40 in the blood was measured with an electrochemiluminescence detection assay using a Meso Scale Discovery instrument (Meso Scale Diagnostics, Rockville, MD, US). For efficacy, solid tumors were assessed using Response Evaluation Criteria in Solid Tumors (RECIST; version 1.1).
# AKT = assay: Ratio of pPRAS40/total PRAS40 in platelet-rich plasma (electrochemiluminescence); format: in vivo, human; conditions: at any time point; DEP, RMP and SAP; dose levels 2 to 5 (8 to 32 mg/body/day)
# Experimental: Blood samples for pharmacokinetic analysis were collected immediately prior to dosing (0 h) and at 0.5, 1, 2, 3, 4, 6, 8, 12, and 24 h post-dose on Day 1 and Day 21 of Cycle 1 for patients in the DEP (QD dosing). For patients who received intermittent dosing regimens, blood was collected immediately prior to dosing (0 h) and at 1, 2, 3, 4, 6, 8, 10, and 24 h post-dose on Cycle 1 Day 1; immediately prior to dosing (0 h) on Cycle 1 Days 3, 4, and 8; and immediately prior to dosing (0 h) and at 1, 2, 3, 4, 6, 8, 10, 24, 48, and 96 h post-dose on Cycle 1 Day 18. […]
# The pharmacodynamic activity of TAS-117 for AKT inhibition was evaluated by the change in the ratio of pPRAS40 (threonine 246) to total PRAS40 in platelet-rich plasma samples before and after TAS-117 administration. The phosphorylation status of PRAS40 in the blood was measured with an electrochemiluminescence detection assay using a Meso Scale Discovery instrument (Meso Scale Diagnostics, Rockville, MD, US). For efficacy, solid tumors were assessed using Response Evaluation Criteria in Solid Tumors (RECIST; version 1.1). Computed tomography scans were evaluated at baseline, every 6 weeks after initiating TAS-117 administration, and at the time of study discontinuation.
# [2] = RMP (intermittent dosing) Level 4 (24 mg) n = 6
# [3] = RMP (intermittent dosing) Level 5 (32 mg) n = 4
# [4] = SAP (intermittent dosing) Cohort 1 Level 4 n = 16
# [5] = SAP (intermittent dosing) Cohort 2 Level 4 n = 7
# [6] = SAP (intermittent dosing) Cohort 3 Level 4 n = 20
structure (smiles),measurement,setting,value
C[C@]1(O)C[C@@](N)(c2ccc(-c3nc4n(c3-c3ccccc3)COc3ccncc3-4)cc2)C1 [TAS-117],Best overall response: CR,[1]; DEP (QD) Level 1 (4 mg) n = 2,0 n (%)
same,Best overall response: NE,[1]; DEP (QD) Level 1 (4 mg) n = 2,0 n (%)
same,Best overall response: Non-CR/non-PD,[1]; DEP (QD) Level 1 (4 mg) n = 2,0 n (%)
same,Best overall response: PD,[1]; DEP (QD) Level 1 (4 mg) n = 2,2 (100.0) n (%)
same,Best overall response: PR,[1]; DEP (QD) Level 1 (4 mg) n = 2,0 n (%)
same,Best overall response: SD,[1]; DEP (QD) Level 1 (4 mg) n = 2,0 n (%)
same,DCR (CR + PR + SD + non-CR/non-PD),[1]; DEP (QD) Level 1 (4 mg) n = 2,0 n (%)
same,RR (CR + PR),[1]; DEP (QD) Level 1 (4 mg) n = 2,0 n (%)
same,Best overall response: CR,[1]; DEP (QD) Level 2 (8 mg) n = 1,0 n (%)
same,Best overall response: NE,[1]; DEP (QD) Level 2 (8 mg) n = 1,0 n (%)
same,Best overall response: Non-CR/non-PD,[1]; DEP (QD) Level 2 (8 mg) n = 1,0 n (%)
same,Best overall response: PD,[1]; DEP (QD) Level 2 (8 mg) n = 1,0 n (%)
same,Best overall response: PR,[1]; DEP (QD) Level 2 (8 mg) n = 1,0 n (%)
same,Best overall response: SD,[1]; DEP (QD) Level 2 (8 mg) n = 1,1 (100.0) n (%)
same,DCR (CR + PR + SD + non-CR/non-PD),[1]; DEP (QD) Level 2 (8 mg) n = 1,1 (100.0) n (%)
same,RR (CR + PR),[1]; DEP (QD) Level 2 (8 mg) n = 1,0 n (%)
same,Best overall response: CR,[1]; DEP (QD) Level 3 (16 mg) n = 6,0 n (%)
same,Best overall response: NE,[1]; DEP (QD) Level 3 (16 mg) n = 6,0 n (%)
same,Best overall response: Non-CR/non-PD,[1]; DEP (QD) Level 3 (16 mg) n = 6,0 n (%)
same,Best overall response: PD,[1]; DEP (QD) Level 3 (16 mg) n = 6,6 (100.0) n (%)
same,Best overall response: PR,[1]; DEP (QD) Level 3 (16 mg) n = 6,0 n (%)
same,Best overall response: SD,[1]; DEP (QD) Level 3 (16 mg) n = 6,0 n (%)
same,DCR (CR + PR + SD + non-CR/non-PD),[1]; DEP (QD) Level 3 (16 mg) n = 6,0 n (%)
same,RR (CR + PR),[1]; DEP (QD) Level 3 (16 mg) n = 6,0 n (%)
same,Best overall response: CR,[1]; DEP (QD) Level 4 (24 mg) n = 3,0 n (%)
same,Best overall response: NE,[1]; DEP (QD) Level 4 (24 mg) n = 3,0 n (%)
same,Best overall response: Non-CR/non-PD,[1]; DEP (QD) Level 4 (24 mg) n = 3,0 n (%)
same,Best overall response: PD,[1]; DEP (QD) Level 4 (24 mg) n = 3,2 (66.7) n (%)
same,Best overall response: PR,[1]; DEP (QD) Level 4 (24 mg) n = 3,0 n (%)
same,Best overall response: SD,[1]; DEP (QD) Level 4 (24 mg) n = 3,1 (33.3) n (%)
same,DCR (CR + PR + SD + non-CR/non-PD),[1]; DEP (QD) Level 4 (24 mg) n = 3,1 (33.3) n (%)
same,RR (CR + PR),[1]; DEP (QD) Level 4 (24 mg) n = 3,0 n (%)
same,Best overall response: CR,[1]; [2],0 n (%)
same,Best overall response: NE,[1]; [2],0 n (%)
same,Best overall response: Non-CR/non-PD,[1]; [2],0 n (%)
same,Best overall response: PD,[1]; [2],4 (66.7) n (%)
same,Best overall response: PR,[1]; [2],0 n (%)
same,Best overall response: SD,[1]; [2],2 (33.3) n (%)
same,DCR (CR + PR + SD + non-CR/non-PD),[1]; [2],2 (33.3) n (%)
same,RR (CR + PR),[1]; [2],0 n (%)
same,Best overall response: CR,[1]; [3],0 n (%)
same,Best overall response: NE,[1]; [3],0 n (%)
same,Best overall response: Non-CR/non-PD,[1]; [3],0 n (%)
same,Best overall response: PD,[1]; [3],4 (100.0) n (%)
same,Best overall response: PR,[1]; [3],0 n (%)
same,Best overall response: SD,[1]; [3],0 n (%)
same,DCR (CR + PR + SD + non-CR/non-PD),[1]; [3],0 n (%)
same,RR (CR + PR),[1]; [3],0 n (%)
same,Patients with confirmed partial response,[1]; SAP,Four patients
same,Best overall response: CR,[1]; [4],0 n (%)
same,Best overall response: NE,[1]; [4],0 n (%)
same,Best overall response: Non-CR/non-PD,[1]; [4],0 n (%)
same,Best overall response: PD,[1]; [4],5 (31.3) n (%)
same,Best overall response: PR,[1]; [4],1 (6.3) n (%)
same,Best overall response: SD,[1]; [4],10 (62.5) n (%)
same,DCR (CR + PR + SD + non-CR/non-PD),[1]; [4],11 (68.8) n (%)
same,RR (CR + PR),[1]; [4],1 (6.3) n (%)
same,Best overall response: CR,[1]; [5],0 n (%)
same,Best overall response: NE,[1]; [5],0 n (%)
same,Best overall response: Non-CR/non-PD,[1]; [5],0 n (%)
same,Best overall response: PD,[1]; [5],1 (14.3) n (%)
same,Best overall response: PR,[1]; [5],0 n (%)
same,Best overall response: SD,[1]; [5],6 (85.7) n (%)
same,DCR (CR + PR + SD + non-CR/non-PD),[1]; [5],6 (85.7) n (%)
same,RR (CR + PR),[1]; [5],0 n (%)
same,Best overall response: CR,[1]; [6],0 n (%)
same,Best overall response: NE,[1]; [6],0 n (%)
same,Best overall response: Non-CR/non-PD,[1]; [6],0 n (%)
same,Best overall response: PD,[1]; [6],12 (60.0) n (%)
same,Best overall response: PR,[1]; [6],3 (15.0) n (%)
same,Best overall response: SD,[1]; [6],5 (25.0) n (%)
same,DCR (CR + PR + SD + non-CR/non-PD),[1]; [6],8 (40.0) n (%)
same,RR (CR + PR),[1]; [6],3 (15.0) n (%)
same,Confirmed PR,"[1]; SAP cohort 1 (endometrial cancer with PIK3CA mutation), 1 of 16 patients",6.3%
same,DCR,[1]; SAP cohort 2,85.7%
same,DCR,[1]; SAP cohort 3,40.0%
same,Confirmed PR,"[1]; SAP cohort 3 (ovarian clear cell carcinoma), 3 of 20 patients",15.0%
same,DCR,"[1]; SAP, cohort 1",68.8%
same,Best overall response: CR,[1]; Total N = 65,0 n (%)
same,Best overall response: NE,[1]; Total N = 65,0 n (%)
same,Best overall response: Non-CR/non-PD,[1]; Total N = 65,0 n (%)
same,Best overall response: PD,[1]; Total N = 65,36 (55.4) n (%)
same,Best overall response: PR,[1]; Total N = 65,4 (6.2) n (%)
same,Best overall response: SD,[1]; Total N = 65,25 (38.5) n (%)
same,DCR (CR + PR + SD + non-CR/non-PD),[1]; Total N = 65,29 (44.6) n (%)
same,RR (CR + PR),[1]; Total N = 65,4 (6.2) n (%)
same,DCR,[1]; dose level 2 in the DEP,100%
same,Reduction in the level of pPRAS40,AKT,> 50%
